Data: patent US20180343865A1, “HERBICIDAL COMPOSITIONS COMPRISING ISOXAZOLO[5,4-B]PYRIDINES” (BASF SE, priority 2015, published 2018)

Key:
Assay type in all cases: in vivo
[1] = system: Polygonum aviculare; test: Greenhouse postemergence herbicidal activity on POLAV, 20 DAT
Protocol: (§1) For the post emergence treatment, the plants were first grown to the 2 leaf station (GS 12) and applied at GS 12-19 depending on the species. The herbicidal compositions were suspended or emulsified in water as distribution medium and sprayed using finely distributing nozzles.
(§2) The plants have been cultivated due to their individual requirements at 10 to 25° C. and. 20 to 35° C. The plants were irrigated due to their necessity.
(§3) The respective stated components A), were formulated as a 5% by weight strength emulsion concentrate containing wettol EM 31 20% and Cyclohexanone 80%. The respective stated components B), were formulated as either emulsifiable concentrates (EC), soluble liquids (SL), suspension concentrates (SC) or soluble granules (SG) as indicated in the table below. Component A, component B and the solvent system are introduced into the spray liquor used for applying the active compound. In the examples, the solvent used was water containing 1% Dash (Agnique ME 181 37.5%, Lutensit A-EP 22.5%, and Oleic Acid 5%) and 2% ammonium suflate.
(§4) In the following experiments, the herbicidal activity for the individual herbicide compounds (solo and mixture applications), the herbicidal succession was assessed 20 days after treatment (DAT). The evaluation for the damage on undesired weeds caused by the chemical compositions was carried out using a scale from 0 to 100%, compared to the untreated control plants. Here, 0 means no damage and 100 means complete destruction of the plants. The plants used in the greenhouse experiments belonged to the following species:
(§5) The value E, which corresponds to the effect (in %) that is to be expected if the activity of the individual compounds is additive, was calculated using the method of S. R. Colby (1967) “Calculating synergistic and antagonistic responses of herbicide combinations”, Weeds 15, p. 22 ff. Colby calculation for 2 way mixtures:
(§6) where: • X=effect in percent using herbicide A at an application rate a; • Y=effect in percent using herbicide B at an application rate b; • E=expected effect (in %) of A+B at application rates a+b
(§7) If the value observed in this manner is higher than the value E calculated according to Colby, a synergistic effect is present.

[2] = system: Stellaria media; test: Greenhouse postemergence herbicidal activity on STEME, 20 DAT; conditions: STEME, postemergence, 20 DAT
Protocol: as §1, §2, §3, §4, §5, §6, §7

[3] = system: Kochia scoparia; test: Greenhouse postemergence herbicidal activity on KCHSC, 20 DAT; conditions: 20 DAT
Protocol: as §1, §2, §3, §4, §5, §6, §7

[4] = system: Polygonum convolvulus; test: Greenhouse postemergence herbicidal activity on POLCO, 20 DAT; conditions: POLCO, postemergence, 20 DAT
Protocol: as §1, §2, §3, §4, §5, §6, §7

[5] = system: Chenopodium album; test: Greenhouse postemergence herbicidal activity on CHEAL, 20 DAT; conditions: 20 DAT
Protocol: as §1, §2, §3, §4, §5, §6, §7

[6] = system: Abutilon theoprasti; test: Greenhouse postemergence herbicidal activity on ABUTH, 20 DAT; conditions: 20 DAT
Protocol: as §1, §2, §3, §4, §5, §6, §7

[7] = system: Sinapis arvensis; test: Greenhouse postemergence herbicidal activity on SINAR, 20 DAT; conditions: 50 gai/ha
Protocol: as §1, §2, §3, §4, §5, §6, §7

[8] = system: Polygonum persicaria; test: Greenhouse postemergence herbicidal activity on POLPE, 20 DAT; conditions: POLPE, postemergence, 20 DAT
Protocol: as §1, §2, §3, §4, §5, §6, §7

[9] = system: Conyza canadiensis; test: Greenhouse postemergence herbicidal activity on ERICA, 20 DAT; conditions: ERICA, postemergence, 20 DAT
Protocol: as §1, §2, §3, §4, §5, §6, §7

[10] = system: Ipomoea hederacea; test: Greenhouse postemergence herbicidal activity on IPOHE, 20 DAT; conditions: 20 DAT
Protocol: as §1, §2, §3, §4, §5, §6, §7

[11] = system: Ambrosia elatior; test: Greenhouse postemergence herbicidal activity on AMBEL, 20 DAT; conditions: AMBEL, 25 gai/ha, postemergence, 20 DAT
Protocol: as §1, §2, §3, §4, §5, §6, §7

[12] = system: Amaranthus retroflexus; test: Greenhouse postemergence herbicidal activity on AMARE, 20 DAT; conditions: Amaranthus retroflexus, post-emergence, 480 h, AMARE, 31.25 gai/ha, postemergence, 20 DAT; read-out: % activity, solo (I.B)
Protocol: as §1, §2, §3, §4, §5, §6, §7

[13] = system: Amaranthus palmeri; test: Greenhouse postemergence herbicidal activity on AMAPA, 20 DAT; conditions: Amaranthus palmeri, post-emergence, 480 h, read-out: % activity, solo (I.B)
Protocol: as §1, §2, §3, §4, §5, §6, §7

Q: What does the source list for O=C(O)COc1ccc(Cl)cc1Cl [2,4-D]?
A: % activity, solo 2,4-D ([1]; 25 gai/ha): 10%; % activity, solo 2,4-D ([1]; 50 gai/ha): 98%; % activity, solo 2,4-D ([2]; 25 gai/ha): 0%; % activity, solo 2,4-D ([2]; 50 gai/ha): 0%; % activity, solo 2,4-D ([2]; 100 gai/ha): 30%; % activity, solo 2,4-D ([3]; 25 gai/ha): 90%; % activity, solo 2,4-D ([4]; 25 gai/ha): 30%; % activity, solo 2,4-D ([4]; 50 gai/ha): 40%; % activity, solo 2,4-D ([4]; 100 gai/ha): 70%; % activity, solo 2,4-D ([5]; 50 gai/ha): 90%; % activity, solo 2,4-D ([5]; 100 gai/ha): 90%; % activity, solo 2,4-D ([6]; 25 gai/ha): 50%; % activity, solo 2,4-D ([6]; 50 gai/ha): 80%; % activity, solo 2,4-D ([6]; 100 gai/ha): 90%; % activity, solo 2,4-D [7]: 80%; % activity, solo 2,4-D ([8]; 25 gai/ha): 10%; % activity, solo 2,4-D ([8]; 50 gai/ha): 40%; % activity, solo 2,4-D ([8]; 100 gai/ha): 70%; % activity, solo 2,4-D ([9]; 25 gai/ha): 60%; % activity, solo 2,4-D ([9]; 100 gai/ha): 75%; % activity, solo 2,4-D ([10]; 25 gai/ha): 98%; % activity, solo 2,4-D ([10]; 100 gai/ha): 98%; % activity, solo 2,4-D [11]: 45%

Q: With O=C(O)c1cc(C2CC2)nc2onc(-c3ccc(OC(F)F)cc3)c12 [(I.B)] as the molecule, how does the inhibition at 31.25 g/ha ([3]; Bassia scoparia, post-emergence, 480 h, 31.25 gai/ha, read-out: % activity, solo (I.B)) read?
A: 43%

Q: What about the inhibition at 31.25 g/ha [12] of the same molecule?
A: 89%

Q: What about the inhibition at 31.25 g/ha ([5]; Chenopodium album, post-emergence, 480 h, 31.25 gai/ha, read-out: % activity, solo (I.B)) of the same molecule?
A: 53%

Q: What about the inhibition at 31.25 g/ha ([6]; Abutilon, post-emergence, 480 h, 31.25 gai/ha, read-out: % activity, solo (I.B)) of the same molecule?
A: 70%

Q: And the inhibition at 62.5 g/ha ([6]; Abutilon, post-emergence, 480 h, 62.5 gai/ha, read-out: % activity, solo (I.B))?
A: 75%

Q: And the inhibition at 125 g/ha ([6]; Abutilon, post-emergence, 480 h, 125 gai/ha, read-out: % activity, solo (I.B))?
A: 73%

Q: What about the inhibition at 15.6 g/ha ([13]; 15.6 gai/ha) of the same molecule?
A: 20%

Q: What about the inhibition at 31.25 g/ha ([13]; 31.25 gai/ha) of the same molecule?
A: 70%

Q: And the inhibition at 62.5 g/ha ([13]; 62.5 gai/ha)?
A: 78%
